The test system of one assay is SF-295. Put plainly: Cytotoxic activity against SF-295 CNS cancer cell line. In kind it is functional. To be noted: Homo sapiens.
Another assay concerns SF-268. The assay can be described thus: Cytotoxic activity against SF-268 CNS canser cell line. It counts as functional. Particulars: Homo sapiens.
A further assay deals with HCT-116. Put plainly: Cytotoxic activity against HCT116 colon cancer cell line. Particulars: Homo sapiens. It counts as functional.
The subject of the next assay is SR. The assay can be described thus: Cytotoxic activity against SR Leukemia cell line. It counts as functional. To be noted: Homo sapiens.
The next assay concerns UACC-257. The assay can be described thus: Cytotoxic activity against UACC-257 Melanoma cell line. In kind it is functional. To be noted: Homo sapiens.
A further assay has as its system MOLT-4. Put plainly: Cytotoxic activity against MOLT-4 Leukemia cell line. It counts as functional. Particulars: Homo sapiens.
In the next assay the test system is 786-0. The assay can be described thus: Cytotoxic activity against 786-0 Renal cancer cell line. To be noted: Homo sapiens. In kind it is functional.
Assay [1] concerns MDA-N. Put plainly: Cytotoxic activity against MDA-N Breast cancer cell line. In kind it is functional. Particulars: Homo sapiens.
The next assay concerns A549. The assay can be described thus: Cytotoxic activity against A549/ATCC non-small cell-lung cancer cell line. In kind it is functional. Particulars: Homo sapiens.
For assay [2], the target named is T1, Dihydrofolate reductase (Rattus norvegicus, UniProt Q920D2).
T1 sequence (Q920D2 whole entry): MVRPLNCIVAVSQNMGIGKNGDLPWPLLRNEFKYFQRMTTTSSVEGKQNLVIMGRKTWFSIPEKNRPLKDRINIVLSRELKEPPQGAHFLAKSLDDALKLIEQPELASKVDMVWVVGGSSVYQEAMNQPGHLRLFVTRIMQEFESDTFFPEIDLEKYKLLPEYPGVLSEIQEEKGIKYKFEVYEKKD
Description: Inhibitory activity against Dihydrofolate reductase from rat liver

In the next assay the test system is IGROV-1. The assay can be described thus: Cytotoxic activity against IGROV1 Ovarian cancer cell line. It counts as functional. Particulars: Homo sapiens.
In assay [3] the target is T2, Bifunctional dihydrofolate reductase-thymidylate synthase (Toxoplasma gondii, UniProt Q07422).
T2 sequence (Q07422 whole entry): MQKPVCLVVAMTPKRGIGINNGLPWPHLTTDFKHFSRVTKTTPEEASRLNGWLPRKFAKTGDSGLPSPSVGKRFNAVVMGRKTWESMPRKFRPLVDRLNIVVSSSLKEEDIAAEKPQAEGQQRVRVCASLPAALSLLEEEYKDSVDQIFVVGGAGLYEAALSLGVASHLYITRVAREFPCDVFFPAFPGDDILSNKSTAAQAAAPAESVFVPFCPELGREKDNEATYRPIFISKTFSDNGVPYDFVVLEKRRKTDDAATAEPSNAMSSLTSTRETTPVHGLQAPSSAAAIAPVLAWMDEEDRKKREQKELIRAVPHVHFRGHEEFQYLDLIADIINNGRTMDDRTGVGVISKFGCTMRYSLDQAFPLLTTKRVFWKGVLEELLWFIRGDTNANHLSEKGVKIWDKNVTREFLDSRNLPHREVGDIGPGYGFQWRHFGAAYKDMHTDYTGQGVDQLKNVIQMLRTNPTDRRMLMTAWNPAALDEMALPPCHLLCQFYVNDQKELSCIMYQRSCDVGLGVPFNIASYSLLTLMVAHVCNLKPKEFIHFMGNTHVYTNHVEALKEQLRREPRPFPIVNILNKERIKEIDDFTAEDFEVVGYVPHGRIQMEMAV
Description: Inhibitory activity against Dihydrofolate reductase from Toxoplasma gondii

The next assay concerns SW-620. The assay can be described thus: Cytotoxic activity against SW-620 colon cancer cell line. In kind it is functional. To be noted: Homo sapiens.
In the next assay the test system is MDA-MB-435. Put plainly: Cytotoxic activity against MDA-MB-435 Breast cancer cell line. In kind it is functional. To be noted: Homo sapiens.
The test system of another assay is PC-3. Put plainly: Cytotoxic activity against PC-3 Prostate cancer cell line. In kind it is functional. To be noted: Homo sapiens.
For the next assay, the system named is CCRF-CEM. The assay can be described thus: Cytotoxic activity against CCRF-CEM Leukemia cell line. In kind it is functional. Particulars: Homo sapiens.
The next assay has as its system DU-145. The assay can be described thus: Cytotoxic activity against DU-145 Prostate cancer cell line. It counts as functional. Particulars: Homo sapiens.
For another assay, the system named is HCT-15. Put plainly: Cytotoxic activity against HCT-15 colon cancer cell line. In kind it is functional. Particulars: Homo sapiens.
The subject of a further assay is HT-29. The assay can be described thus: Cytotoxic activity against HT-29 colon cancer cell line. In kind it is functional. Particulars: Homo sapiens.
A further assay relates to U-251. The assay can be described thus: Cytotoxic activity against U251 CNS cancer cell line. It counts as functional. To be noted: Homo sapiens.
The test system of a further assay is MDA-MB-231. The assay can be described thus: Cytotoxic activity against MDA-MB-231/ATCC Breast cancer cell line. In kind it is functional. To be noted: Homo sapiens.
Assay [4] deals with T3, Dihydrofolate reductase (Pneumocystis carinii, UniProt P16184).
T3 sequence (P16184 whole entry): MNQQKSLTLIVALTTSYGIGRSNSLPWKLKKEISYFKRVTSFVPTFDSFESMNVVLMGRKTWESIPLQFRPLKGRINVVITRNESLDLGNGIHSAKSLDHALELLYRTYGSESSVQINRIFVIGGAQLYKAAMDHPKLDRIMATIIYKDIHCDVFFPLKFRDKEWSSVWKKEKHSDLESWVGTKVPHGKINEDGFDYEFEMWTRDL
Description: Inhibitory activity against Dihydrofolate reductase from Pneumocystis carinii

In another assay the test system is ACHN. The assay can be described thus: Cytotoxic activity against ACHN Renal cancer cell line. To be noted: Homo sapiens. In kind it is functional.
The test system of the next assay is SK-MEL-5. The assay can be described thus: Cytotoxic activity against SK-MEL-5 Melanoma cell line. It counts as functional. To be noted: Homo sapiens.
The subject of another assay is NCI-H460. Put plainly: Cytotoxic activity against NCI-H460 non-small cell-lung cancer cell line. It counts as functional. Particulars: Homo sapiens.
The test system of a further assay is K562. Put plainly: Cytotoxic activity against K-562 Leukemia cell line. It counts as functional. To be noted: Homo sapiens.
In the next assay the test system is LOX IMVI. The assay can be described thus: Cytotoxic activity against LOXIMVI Melanoma cell line. Particulars: Homo sapiens. It counts as functional.
The test system of a further assay is UACC-62. The assay can be described thus: Cytotoxic activity against UACC-62 Melanoma cell line. In kind it is functional. To be noted: Homo sapiens.
The nature of assay [5]: Ratio of the inhibitory concentrations against Toxoplasma gondii […] and Toxoplasma gondii DHFR.
In assay [6] the target is Dihydrofolate reductase (Lactobacillus casei, UniProt P00381).
Dihydrofolate reductase (Lactobacillus casei, UniProt P00381), sequence (P00381 whole entry): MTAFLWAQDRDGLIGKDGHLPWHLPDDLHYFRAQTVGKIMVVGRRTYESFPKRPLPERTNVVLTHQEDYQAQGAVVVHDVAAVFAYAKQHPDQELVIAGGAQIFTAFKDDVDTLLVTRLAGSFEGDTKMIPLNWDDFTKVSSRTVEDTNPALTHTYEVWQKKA
Description: Inhibitory activity against Dihydrofolate reductase from Lactobacillus casei
For another assay, the system named is Toxoplasma gondii. Put plainly: Inhibitory activity against cultured Toxoplasma gondii. In kind it is functional, organism-based.
Assay [7] deals with MDA-N. Put plainly: Cytotoxic activity against MDA-N breast cancer cell line. Particulars: Homo sapiens. In kind it is functional.
The test system of another assay is NCI-H322M. Put plainly: Cytotoxic activity against NCI-H322M non-small cell-lung cancer cell line. It counts as functional. To be noted: Homo sapiens.

pIC50: −log10 of the molar value.

As a reminder, the GI50 is the concentration giving 50% growth inhibition. A high value points to lower sensitivity of the cells. By pIC50 is commonly meant the IC50 on a negative log10 scale, so that one unit is a factor of ten. Read a high pIC50 as a low IC50. On to `COc1cc(OC)cc(N(C)Cc2cnc3nc(N)nc(N)c3c2C)c1`, for which the GI50 turned out to be 5.15 µM with SF-295; 0.717 µM in the assay on SF-268; 0.41 µM in the assay on HCT-116; 0.541 µM in the assay on SR; 0.62 µM in the assay with UACC-257; 0.742 µM in the assay on MOLT-4. Also, the GI50 in the assay on 786-0 stood at 0.63 µM; in the assay with MDA-N [1], 0.527 µM; in the assay on A549, 0.442 µM; with IGROV-1, 0.956 µM; in the assay with SW-620, 5.5 µM; in the assay with MDA-MB-435 it was 6.93 µM. Moreover, the GI50 in the assay with PC-3 came to 0.594 µM; with CCRF-CEM, 0.536 µM; in the assay on DU-145 it was 4.36 µM; in the assay on HCT-15 it was 2.12 µM; with HT-29 it was 5.84 µM; in the assay with U-251, 0.529 µM. Further, the GI50 came out at 9.22 µM in the assay with MDA-MB-231; 0.816 µM with ACHN; 0.596 µM in the assay with SK-MEL-5; 0.544 µM with NCI-H460; 0.209 µM in the assay with K562; 1.99 µM in the assay with LOX IMVI. In the assay with UACC-62, this compound came in with a 50% growth inhibitory concentration (GI50) of 0.628 µM. Further, the pIC50 against Dihydrofolate reductase [2] was 6.77; in assay [3] it was 7.24; on Dihydrofolate reductase [4], 6.89.
With `COc1ccc(OC)c(NCc2cnc3nc(N)nc(N)c3c2C)c1`, the Ratio in assay [5] was determined as 94. The pIC50 against Dihydrofolate reductase [6] was 7.41; against Dihydrofolate reductase [2], 6.89; in assay [3], 7.80; with Toxoplasma gondii it was 5.82; against Dihydrofolate reductase [4], 7.34.
As to `COc1ccc(NCc2cnc3nc(N)nc(N)c3c2C)cc1OC`, the pIC50 was 7.08 against Dihydrofolate reductase [6], 8.12 against Dihydrofolate reductase [2], 8.06 in [3] and 7.36 against Dihydrofolate reductase [4].
With `C#CCN(Cc1cnc2nc(N)nc(N)c2c1C)c1cc(OC)c(OC)c(OC)c1`, the pIC50 was 7.93 against Dihydrofolate reductase [2], 8.11 in [3] and 7.27 against Dihydrofolate reductase [4].
Take `COc1ccc(NCc2cnc3nc(N)nc(N)c3c2C)c(OC)c1`: the GI50 in the assay on MDA-N [7] amounted to 0.359 µM; in the assay on SF-295 it was 1.61 µM; with SF-268, 4.17 µM; in the assay on HCT-116, 0.173 µM; in the assay on SR, 3.53 µM; in the assay on UACC-257, 100 µM. For the same compound, the GI50 in the assay on MOLT-4 came to 1.22 µM; with 786-0, 0.588 µM; with A549 it was 0.635 µM; in the assay on IGROV-1 it was 6.27 µM; in the assay on MDA-MB-435, 3.53 µM; with NCI-H322M, 50.6 µM. Further, the GI50 in the assay on PC-3 came out at 0.852 µM; in the assay with CCRF-CEM, 4.29 µM; with DU-145, 2.83 µM; with HCT-15 it was 2.2 µM; in the assay with HT-29 it was 2.38 µM; with U-251, 5.81 µM. In addition, the concentration for 50% growth inhibition (GI50) with MDA-MB-231 is 1.91 µM; in the assay with ACHN it was 2.89 µM; in the assay with SK-MEL-5 it was 1.15 µM; with NCI-H460 it was 0.481 µM; in the assay on K562, 0.305 µM; in the assay on LOX IMVI, 3.35 µM. The GI50 in the assay on UACC-62 came out at 126 µM. In addition, the values for the pIC50 (against Dihydrofolate reductase [2]; in [3]; against Dihydrofolate reductase [4]) were 6.67, 7.25 and 6.50, respectively.
With `CCN(Cc1cnc2nc(N)nc(N)c2c1C)c1cc(OC)c(OC)c(OC)c1`, the results for the negative-log IC50 (pIC50) (against Dihydrofolate reductase [2]; in [3]; against Dihydrofolate reductase [4]) were 7.98, 8.11 and 7.30, respectively.
The corresponding values for `COc1ccc(N(C)Cc2cnc3nc(N)nc(N)c3c2C)cc1OC` are 7.36, 7.54 and 6.49.
As for `Cc1c(CNc2cccc3ccccc23)cnc2nc(N)nc(N)c12`, the Ratio in [5] was found to be 7. Also, the pIC50 against Dihydrofolate reductase [2] is 7.53; in [3], 7.84; with Toxoplasma gondii, 7.00; on Dihydrofolate reductase [4], 6.24.

The record behind these values is ChEMBL document CHEMBL1128680, “6-substituted 2,4-diamino-5-methylpyrido[2,3-d]pyrimidines as inhibitors of dihydrofolate reductases from Pneumocystis carinii and Toxoplasma gondii and as antitumor agents” (J Med Chem, 1995).
